Common to all, as to format: cell-based
The nature of data set [1]: Cytotoxicity in PHH natural infection assay (Cell Counting Kit-8). Particulars: human; HBV-infected PHH, CCK8, compound refreshed two times with 72-hour interval. The procedure:
(§1) Detailed procedures regarding primary human hepatocyte (PHH) HBV natural infection assay are described as below. One tube of frozen PHH (10 million cells) is thawed in 37° C. water bath and then transferred to 20 mL of PHH thawing medium (Sigma, InVitroGRO HT Medium, Cat. S03319) with gently mixing. The cells were then centrifuged at […] for 5 min, the supernatant was discarded and the tube was refilled with 25 mL of PHH plating medium (Sigma, InVitroGRO CP Medium, Cat. S03317). The tube was shaken very gently to re-suspend all cells, and then 50 µl of cells were transferred to each well 384-well collagen I coated plate with appropriate liquid handling equipment, e.g. Integra VIAFLO384 or Agilent Bravo. The cells were then cultured for 24 hours in a cell incubator. For HBV infection, after PHH attachment on the culture plate, the plating medium was removed and replenished with PHH culture medium containing HBV virus. The PHH culture medium was prepared with Dulbecco’s Modified Eagle Medium (DMEM)/F12 (1: 1 in volume ratio) containing 10% fetal bovine serum (Gibco, Cat. 10099141), 5 ng/mL human epidermal growth factor (Gibco, Cat.PHG0311L), 20 ng/mL dexamethasone (Sigma, Cat.D4902-100mg), 250 ng/mL human recombinant insulin (Gibco, Cat.41400045) and 100 U/mL penicillin. HBV virus at 200 genome equivalent (GE) per cell with 4% PEG8000 (Sigma, Cat.P1458) containing culture medium were added to the PHH culture medium for infection. The cells were then cultured for 24 hours in cell incubator. Then the cell culture supernatant was removed. The HBV-infected PHH were cultured with sandwich culture method with PHH culture medium containing 1% DMSO and 0.25 mg/mL matrix gel for 72 hours. The supernatant was then refreshed with PHH culture medium containing different concentrations of testing compounds for two times with 72-hour interval. At the end of treatment, the supernatant was collected for viral markers measurements, including HBsAg, HBeAg, HBV DNA and cytotoxicity. HBsAg and HBeAg were detected using alphalisa method using their specific antibodies. For HBV DNA detection, HBV DNA Quantitative Fluorescence Diagnostic Kit (Sansure Biotech Inc.) was used following the manufacture’s protocol. Cytotoxicity was determined using Cell Counting Kit-8 (CCK8, Dojindo Molecular Technologies, Inc.).
A general note: Tetrazolium dyes change colour on reduction, which living cells bring about.

A further data set has as its system HBsAg. Kind of data set: PHH HBV natural infection assay, HBsAg (alphalisa). As for the experimental part: as §1
(§2) The compounds of the present invention were tested for their capacity to inhibit HBsAg and HBeAg as described herein.

The next data set relates to HBeAg. Briefly: PHH HBV natural infection assay, HBeAg (alphalisa). The procedure:
as §1, §2
(In general: In Alpha technology, singlet oxygen from a donor bead excites a nearby acceptor bead.)

Setting [2] is: Hepatitis B virus, 72 h, read-out: HBsAg IC50, HBV-infected PHH, culture supernatant, compound refreshed two times with 72-hour interval, alphalisa.
[3] abbreviates: Hepatitis B virus, 72 h, read-out: HBeAg IC50, HBV-infected PHH, culture supernatant, compound refreshed two times with 72-hour interval, alphalisa.
Where [4] appears, read: read-out: HBsAg IC50, HBV-infected PHH, culture supernatant, compound refreshed two times with 72-hour interval, alphalisa.
Setting [5] is: read-out: HBeAg IC50, HBV-infected PHH, culture supernatant, compound refreshed two times with 72-hour interval, alphalisa.

Read-outs that look alike come from different tables or passages of the source. A value given as a limit tells only on which side of the number the result lay.

A word on the CC50: it is the concentration giving 50% cytotoxicity. Low values mean harm at low concentration, high ones better tolerance by the cells. As usually defined, the IC50 is the point on the concentration scale where inhibition reaches its midpoint. In the case of `CCS(=O)(=O)c1cc(C(=O)NC2CC3(C2)CC(c2nc4cc(Cl)ccc4s2)C3)ccn1` (stereo not drawn) [Example 9, N-[6-(5-chloro-1,3-benzothiazol-2-yl)spiro[3.3]heptan-2-yl]-2-ethylsulfonyl-pyridine-4-carboxamide], the CC50 at 144 h in data set [1] stood at 13.4 µM. In addition, the IC50 came to 1.35 µM with HBsAg (setting [2]) and 1.21 µM with HBeAg (setting [3]).
`CCN(CC)c1cc(C(=O)NC2CC3(C2)CC(c2nc4cc(Cl)ccc4s2)C3)ccn1` (stereo not drawn) [Example 48, N-[6-(5-chloro-1,3-benzothiazol-2-yl)spiro[3.3]heptan-2-yl]-2-(diethylamino)pyridine-4-carboxamide] came in with a CC50 at 144 h in data set [1] of over 10 µM. Besides, the 50% inhibitory concentration (IC50) in the data set with HBsAg (setting [2]) is 5.92 µM; in the data set on HBeAg (setting [3]), 4.96 µM.
In the same order, the values of `O=C(NC1CC2(C1)CC(c1nc3cc(Cl)ccc3s1)C2)C1CCS(=O)(=O)C1` (stereo not drawn) [Example 26, N-[6-(5-chloro-1,3-benzothiazol-2-yl)spiro[3.3]heptan-2-yl]-1,1-dioxo-thiolane-3-carboxamide] are over 100 µM, 1.99 µM and 1.18 µM.
In data set [1], `CC(c1ccc(C(=O)NC2CC3(C2)CC(c2nc4cc(Cl)ccc4s2)C3)o1)S(C)(=O)=O` (stereo not drawn) [Example 16, N-[6-(5-chloro-1,3-benzothiazol-2-yl)spiro[3.3]heptan-2-yl]-5-(1-methylsulfonylethyl)furan-2-carboxamide] registered a CC50 at 144 h of 23.9 µM. Moreover, the concentration for half-maximal inhibition (IC50) with HBsAg (setting [2]) stood at 2.69 µM; in the data set on HBeAg (setting [3]) it was 1.92 µM.
On the same counts, the results for `O=C(CC1CCCS1(=O)=O)NC1CC2(C1)CC(c1nc3cc(Cl)ccc3s1)C2` (stereo not drawn) [Example 29, N-[6-(5-chloro-1,3-benzothiazol-2-yl)spiro[3.3]heptan-2-yl]-2-(1,1-dioxothiolan-2-yl)acetamide] are over 10 µM, 4.74 µM and 3.59 µM.
In the same order, the values of `O=C(NC1CC2(C1)CC(c1nc3cc(Cl)ccc3s1)C2)c1ccc(S(=O)(=O)N2CCC2)o1` (stereo not drawn) [Example 20, 5-(azetidin-1-ylsulfonyl)-N-[6-(5-chloro-1,3-benzothiazol-2-yl)spiro[3.3]heptan-2-yl]furan-2-carboxamide] are over 10 µM, 4.88 µM and 4.06 µM.
In the same order, the values of `Cc1cc(C(=O)NC2CC3(C2)CC(c2nc4cc(Cl)ccc4s2)C3)ccn1` (stereo not drawn) [Example 6, N-[6-(5-chloro-1,3-benzothiazol-2-yl)spiro[3.3]heptan-2-yl]-2-methyl-pyridine-4-carboxamide] are over 10 µM, 3.63 µM and 3.3 µM.
In turn, `CS(=O)(=O)Cc1cc(C(=O)NC2CC3(C2)CC(c2nc4cc(Cl)ccc4s2)C3)ccn1` (stereo not drawn) [Example 7, N-[6-(5-chloro-1,3-benzothiazol-2-yl)spiro[3.3]heptan-2-yl]-2-(methylsulfonylmethyl)pyridine-4-carboxamide] yielded a CC50 at 144 h in data set [1] of over 10 µM. Further, the IC50 in the data set on HBsAg (setting [2]) turned out to be 3.33 µM; in the data set with HBeAg (setting [3]) it was 3.09 µM.
In data set [1], `[H][C@]1(NC(=O)c2ccnc(S(C)(=O)=O)c2)C[C@@]2(C1)C[C@]([H])(c1nc3cc(Cl)ccc3s1)C2` (single isomer, unassigned) [Example 54-a, (Sa)-N-[6-(5-chloro-1,3-benzothiazol-2-yl)spiro[3.3]heptan-2-yl]-2-methylsulfonyl-pyridine-4-carboxamide] showed a cytotoxic concentration (CC50) at 144 h of over 10 µM. The IC50 in the data set on HBsAg (setting [4]) is 2.46 µM; with HBeAg (setting [5]), 1.79 µM.
Compound `O=C(NC1CC2(C1)CC(c1nc3cc(Cl)ccc3s1)C2)c1ccnc(N2CCCCC2)c1` (stereo not drawn) [Example 51, N-[6-(5-chloro-1,3-benzothiazol-2-yl)spiro[3.3]heptan-2-yl]-2-(1-piperidyl)pyridine-4-carboxamide] returned a CC50 at 144 h in data set [1] of over 10 µM. For the same compound, the figures for the IC50 in the data set with HBsAg (setting [2]) and in the data set on HBeAg (setting [3]) were 5.51 µM and 4.35 µM, respectively.
In the same order, the values of `CN(C)c1cc(C(=O)NC2CC3(C2)CC(c2nc4cc(Cl)ccc4s2)C3)ccn1` (stereo not drawn) [Example 46, N-[6-(5-chloro-1,3-benzothiazol-2-yl)spiro[3.3]heptan-2-yl]-2-(dimethylamino)pyridine-4-carboxamide] are over 10 µM, 4.2 µM and 3.35 µM.
In the same order, the values of `CC(C)(C)S(=O)(=O)c1cc(C(=O)NC2CC3(C2)CC(c2nc4cc(Cl)ccc4s2)C3)ccn1` (stereo not drawn) [Example 38, 2-tert-butylsulfonyl-N-[6-(5-chloro-1,3-benzothiazol-2-yl)spiro[3.3]heptan-2-yl]pyridine-4-carboxamide] are 30.8 µM, 1.95 µM and 1.49 µM.
On the same counts, the results for `O=C(NC1CC2(C1)CC(c1nc3ccc(Cl)cc3s1)C2)c1ccnc(S(=O)(=O)C2CC2)c1` (stereo not drawn) [Example 37, N-[6-(6-chloro-1,3-benzothiazol-2-yl)spiro[3.3]heptan-2-yl]-2-cyclopropylsulfonyl-pyridine-4-carboxamide] are 10.1 µM, 0.23 µM and 0.2 µM.
In turn, `O=C(NC1CC2(C1)CC(c1nc3cc(Cl)ccc3s1)C2)c1ccc(S(=O)(=O)C2CC2)o1` (stereo not drawn) [Example 13, N-[6-(5-chloro-1,3-benzothiazol-2-yl)spiro[3.3]heptan-2-yl]-5-cyclopropylsulfonyl-furan-2-carboxamide] showed a cytotoxic concentration (CC50) at 144 h in data set [1] of 94.9 µM. For the same compound, the IC50 stood at 0.48 µM in the data set with HBsAg (setting [2]) and 0.36 µM with HBeAg (setting [3]).
Compound `[H][C@]1(NC(=O)c2ccnc(S(=O)(=O)C3CC3)c2)C[C@@]2(C1)C[C@]([H])(c1nc3cc(Cl)ccc3s1)C2` (single isomer, unassigned) [Example 55-a, (Sa)-N-[6-(5-chloro-1,3-benzothiazol-2-yl)spiro[3.3]heptan-2-yl]-2-cyclopropylsulfonyl-pyridine-4-carboxamide] showed a CC50 at 144 h in data set [1] of 22.5 µM. Further, the half-inhibitory concentration (IC50) in the data set on HBsAg (setting [4]) came to 1.56 µM; with HBeAg (setting [5]), 1.09 µM.
As for `CCN(C)c1cc(C(=O)NC2CC3(C2)CC(c2nc4cc(Cl)ccc4s2)C3)ccn1` (stereo not drawn) [Example 47, N-[6-(5-chloro-1,3-benzothiazol-2-yl)spiro[3.3]heptan-2-yl]-2-[ethyl(methyl)amino]pyridine-4-carboxamide], the CC50 at 144 h in data set [1] is over 10 µM. Besides, the figures for the IC50 in the data set on HBsAg (setting [2]) and in the data set with HBeAg (setting [3]) were 5.85 µM and 4.8 µM, respectively.
The compound `CS(=O)(=O)c1cc(C(=O)NC2CC3(C2)CC(c2nc4cc(Cl)ccc4s2)C3)ccn1` (stereo not drawn) [Example 36, N-[6-(5-chloro-1,3-benzothiazol-2-yl)spiro[3.3]heptan-2-yl]-2-methylsulfonyl-pyridine-4-carboxamide] registered a CC50 at 144 h in data set [1] of over 50 µM. In addition, the results for the IC50 in the data set with HBsAg (setting [2]) and in the data set with HBeAg (setting [3]) were 1.08 µM and 0.86 µM, respectively.
In data set [1], `O=C(NC1CC2(C1)CC(c1nc3cc(Cl)ccc3s1)C2)c1ccc(C(O)C(F)(F)F)o1` (stereo not drawn) [Example 18, N-[6-(5-chloro-1,3-benzothiazol-2-yl)spiro[3.3]heptan-2-yl]-5-(2,2,2-trifluoro-1-hydroxyethyl)furan-2-carboxamide] registered a CC50 at 144 h of over 10 µM. In addition, the IC50 in the data set with HBsAg (setting [2]) worked out at 5.52 µM; in the data set with HBeAg (setting [3]), 4.59 µM.
On the same counts, the results for `CN1CCC(C(=O)NC2CC3(C2)CC(c2nc4cc(Cl)ccc4s2)C3)CC1=O` (stereo not drawn) [Example 32, N-[6-(5-chloro-1,3-benzothiazol-2-yl)spiro[3.3]heptan-2-yl]-1-methyl-2-oxo-piperidine-4-carboxamide] are over 10 µM, 6.11 µM and 4.13 µM.

For the origin of these results see patent US20230331715A1, “SPIRO[3.3]HEPTANE DERIVATIVES FOR THE TREATMENT AND PROPHYLAXIS OF HEPATITIS B VIRUS INFECTION” (priority 2020, published 2023).
